The values below come from patent US20210186923A1, “THERAPEUTIC FORMULATIONS AND USES THEREOF” (PIEDMONT ANIMAL HEALTH INC., priority 2017, published 2021).

Data set [1] deals with dogs with naturally occurring coxofemoral joint disease. Particulars: dog, in vivo, po, 3 mg/kg.
Experimental: (§1) Efficacy was determined by rear limb using a quantified kinetic gait analysis.
For data set [2] the test system is unchanged. Description: PAH-100 oral tablet efficacy (PAH16-013), kinetic gait analysis. Particulars: for abnormal clinical observations or adverse events: nine hound dogs, each received all treatments, PAH-100 single oral 3 mg/kg, carprofen 4.4 mg/kg PO q24 hr, 7 doses.
Experimental: as §1

Regarding `O=C(O)C1=Cc2cc(OC(F)(F)F)ccc2OC1C(F)(F)F` (racemic) [PAH-100, (±)-6-(trifluoromethoxy)-2-(trifluoromethyl)-2H-chromene-3-carboxylic acid], the tolerability result in data set [1] was “well tolerated”. Besides, in data set [2] (dogs with coxofemoral joint osteoarthritis, single oral 3 mg/kg, over 7 days, majority of kinetic outcomes), the “limb use by kinetic gait analysis, compared to no treatment and daily carprofen” value was “improved limb use”. The “abnormal clinical observations or adverse events” value in data set [2] is given as “No abnormal clinical observations or adverse events”.
Take `CC(C(=O)O)c1ccc2c(c1)[nH]c1ccc(Cl)cc12` (stereo not shown) [carprofen, reference compound]: the “abnormal clinical observations or adverse events” value in data set [2] is reported as “No abnormal clinical observations or adverse events”.
